Source: publication PMC8289695 (Cell Reports, 2021)

System: SARS-CoV-2
Format: cell-based, strain USA_WA1/2020
Details: for time of addition: single treatment 1 h prior to infection, compound removed prior to infection: VPS34-IN1 and PIK-III at 5 μM

| SMILES | time of addition: single treatment 1 h prior to infection, compound removed prior to infection | time of addition: dosing at 2 hpi or 4 hpi |
| --- | --- | --- |
| Nc1ncc(-c2ccnc(Nc3ccncc3)n2)c(CC2CC2)n1 [PIK-III] | inhibited SARS-CoV-2 replication |  |
| CC(C)(O)CNc1ncc(-c2ccnc(Nc3ccnc(Cl)c3)n2)c(CC2CC2)n1 [VPS34-IN1] | inhibited SARS-CoV-2 replication |  |
| CCCCCCCCCCC[C@@H](C[C@@H]1OC(=O)[C@H]1CCCCCC)OC(=O)[C@H](CC(C)C)NC=O [orlistat] | minimal efficacy | remained inhibitory |
| CCC/C=C/C/C=C/C=C/C=N/NN=O [triacsin C] | minimal efficacy | remained inhibitory |
